Laboratory results published in patent publication US20180169135A1, “METHOD FOR PREVENTING TRANSPLANT FAILURE IN A HOST” (Universiteit Maastricht, priority 2015, published 2018).

Molecular target: Histon H3 (Homo sapiens, UniProt P68431)

heparin [UFH]
neutralization of the cytotoxic activity of Histon H3: neutralize the cytotoxic activity of Histon H3
